Measured values as given in article PMC6199309, “A therapeutic approach to pantothenate kinase associated neurodegeneration” (Nature Communications, 2018).

Tests used:
[1] = biological target: T1, AAK1 (Homo sapiens, UniProt Q2M2I8); experiment: KINOMEscan; format: binding; details: read-out: %Ctrl @ 10000nM
T1 construct: purchased DiscoverX KINOMEscan

[2] = biological target: T2, ABL1(E255K)-phosphorylated (Homo sapiens, UniProt P00519, E255K); experiment: KINOMEscan; format: binding; details: read-out: %Ctrl @ 10000nM
T2 construct: purchased DiscoverX KINOMEscan

[3] = biological target: T3, ABL1(F317I)-phosphorylated (Homo sapiens, UniProt P00519, F317I); experiment: KINOMEscan; format: binding; details: read-out: %Ctrl @ 10000nM
T3 construct: purchased DiscoverX KINOMEscan

[4] = biological target: T4, CAMK1B (Homo sapiens, UniProt Q6P2M8); experiment: KINOMEscan; format: binding; details: read-out: %Ctrl @ 10000nM
T4 construct: purchased DiscoverX KINOMEscan

[5] = biological target: T5, CDK3 (Homo sapiens, UniProt Q00526); experiment: KINOMEscan; format: binding; details: read-out: %Ctrl @ 10000nM
T5 construct: purchased DiscoverX KINOMEscan

[6] = biological target: T6, CSNK1D (Homo sapiens, UniProt P48730); experiment: KINOMEscan; format: binding; details: read-out: %Ctrl @ 10000nM
T6 construct: purchased DiscoverX KINOMEscan

[7] = biological target: T7, DDR1 (Homo sapiens, UniProt Q08345); experiment: KINOMEscan; format: binding; details: read-out: %Ctrl @ 10000nM
T7 construct: purchased DiscoverX KINOMEscan

[8] = biological target: T8, EGFR(S752-I759del) (Homo sapiens, UniProt P00533, DEL752-759); experiment: KINOMEscan; format: binding; details: read-out: %Ctrl @ 10000nM
T8 construct: purchased DiscoverX KINOMEscan

[9] = biological target: T9, EPHB2 (Homo sapiens, UniProt P29323); experiment: KINOMEscan; format: binding; details: read-out: %Ctrl @ 10000nM
T9 construct: purchased DiscoverX KINOMEscan

[10] = biological target: T10, FGFR1 (Homo sapiens, UniProt P11362); experiment: KINOMEscan; format: binding; details: read-out: %Ctrl @ 10000nM
T10 construct: purchased DiscoverX KINOMEscan

[11] = biological target: T11, FLT3 (Homo sapiens, UniProt P36888); experiment: KINOMEscan; format: binding; details: read-out: %Ctrl @ 10000nM
T11 construct: purchased DiscoverX KINOMEscan

[12] = biological target: T12, FLT3(D835Y) (Homo sapiens, UniProt P36888, D835Y); experiment: KINOMEscan; format: binding; details: read-out: %Ctrl @ 10000nM
T12 construct: purchased DiscoverX KINOMEscan

[13] = biological target: T13, GRK1 (Homo sapiens, UniProt Q15835); experiment: KINOMEscan; format: binding; details: read-out: %Ctrl @ 10000nM
T13 construct: purchased DiscoverX KINOMEscan

[14] = biological target: T14, KIT(A829P) (Homo sapiens, UniProt P10721, A829P); experiment: KINOMEscan; format: binding; details: read-out: %Ctrl @ 10000nM
T14 construct: purchased DiscoverX KINOMEscan

[15] = biological target: T15, LRRK2 (Homo sapiens, UniProt Q5S007); experiment: KINOMEscan; format: binding; details: read-out: %Ctrl @ 10000nM
T15 construct: purchased DiscoverX KINOMEscan

[16] = biological target: T16, MEK6 (Homo sapiens, UniProt P52564); experiment: KINOMEscan; format: binding; details: read-out: %Ctrl @ 10000nM
T16 construct: purchased DiscoverX KINOMEscan

[17] = biological target: T17, MLK3 (Homo sapiens, UniProt Q16584); experiment: KINOMEscan; format: binding; details: read-out: %Ctrl @ 10000nM
T17 construct: purchased DiscoverX KINOMEscan

[18] = biological target: T18, MST1 (Homo sapiens, UniProt Q13043); experiment: KINOMEscan; format: binding; details: read-out: %Ctrl @ 10000nM
T18 construct: purchased DiscoverX KINOMEscan

[19] = biological target: T19, PFCDPK1(P.falciparum) (Plasmodium falciparum, UniProt P62344); experiment: KINOMEscan; format: binding; details: read-out: %Ctrl @ 10000nM
T19 construct: purchased DiscoverX KINOMEscan

[20] = biological target: T20, PIK3CA(E545A) (Homo sapiens, UniProt P42336, E545A); experiment: KINOMEscan; format: binding; details: read-out: %Ctrl @ 10000nM
T20 construct: purchased DiscoverX KINOMEscan

[21] = biological target: T21, PIP5K2B (Homo sapiens, UniProt P78356); experiment: KINOMEscan; format: binding; details: read-out: %Ctrl @ 10000nM
T21 construct: purchased DiscoverX KINOMEscan

[22] = biological target: T22, PRKCE (Homo sapiens, UniProt Q02156); experiment: KINOMEscan; format: binding; details: read-out: %Ctrl @ 10000nM
T22 construct: purchased DiscoverX KINOMEscan

[23] = biological target: T23, PRKCI (Homo sapiens, UniProt P41743); experiment: KINOMEscan; format: binding; details: read-out: %Ctrl @ 10000nM
T23 construct: purchased DiscoverX KINOMEscan

[24] = biological target: T24, PRKR (Homo sapiens, UniProt P19525); experiment: KINOMEscan; format: binding; details: read-out: %Ctrl @ 10000nM
T24 construct: purchased DiscoverX KINOMEscan

[25] = biological target: T25, SGK2 (Homo sapiens, UniProt Q9HBY8); experiment: KINOMEscan; format: binding; details: read-out: %Ctrl @ 10000nM
T25 construct: purchased DiscoverX KINOMEscan

[26] = biological target: T26, TEC (Homo sapiens, UniProt P42680); experiment: KINOMEscan; format: binding; details: read-out: %Ctrl @ 10000nM
T26 construct: purchased DiscoverX KINOMEscan

[27] = biological target: T27, TGFBR1 (Homo sapiens, UniProt P36897); experiment: KINOMEscan; format: binding; details: read-out: %Ctrl @ 10000nM
T27 construct: purchased DiscoverX KINOMEscan

[28] = biological target: T28, TLK1 (Homo sapiens, UniProt Q9UKI8); experiment: KINOMEscan; format: binding; details: read-out: %Ctrl @ 10000nM
T28 construct: purchased DiscoverX KINOMEscan

[29] = biological target: T29, TNK2 (Homo sapiens, UniProt Q07912); experiment: KINOMEscan; format: binding; details: read-out: %Ctrl @ 10000nM
T29 construct: purchased DiscoverX KINOMEscan

[30] = biological target: T30, TSSK1B (Homo sapiens, UniProt Q9BXA7); experiment: KINOMEscan; format: binding; details: read-out: %Ctrl @ 10000nM
T30 construct: DNA label for qPCR (T7 phage fusion or DNA tag); purchased DiscoverX scanMAX; host or cells: E. coli BL21-derived (T7 phage) or HEK-293

[31] = biological target: T31, TSSK3 (Homo sapiens, UniProt Q96PN8); experiment: KINOMEscan; format: binding; details: read-out: %Ctrl @ 10000nM
T31 construct: DNA label for qPCR (T7 phage fusion or DNA tag); purchased DiscoverX scanMAX; host or cells: E. coli BL21-derived (T7 phage) or HEK-293

[32] = biological target: T32, WEE1 (Homo sapiens, UniProt P30291); experiment: KINOMEscan; format: binding; details: read-out: %Ctrl @ 10000nM
T32 construct: DNA label for qPCR (T7 phage fusion or DNA tag); purchased DiscoverX scanMAX; host or cells: E. coli BL21-derived (T7 phage) or HEK-293

[33] = test system: HEK293T cells; experiment: Intracellular CoA levels in transfected HEK293T cells; format: cell-based, human; details: 10 μM, 24 h
Protocol: Chloroform 1.5 ml, 1.2 ml water and 30 pmol of [^13C2]acetyl-CoA (Sigma) was added, and centrifuged at 2000×g for 10 min. The top layer was loaded on a 2-(2-pyridyl) ethyl solid phase extraction column which was equilibrated with 1 ml 50% methanol/2% acetic acid. The column was washed twice with 1 ml 50% methanol/2% acetic acid and 1 ml water. […] Samples were resuspended in 90% methanol containing 15 mM ammonium hydroxide.

T1 sequence (Q2M2I8 whole entry): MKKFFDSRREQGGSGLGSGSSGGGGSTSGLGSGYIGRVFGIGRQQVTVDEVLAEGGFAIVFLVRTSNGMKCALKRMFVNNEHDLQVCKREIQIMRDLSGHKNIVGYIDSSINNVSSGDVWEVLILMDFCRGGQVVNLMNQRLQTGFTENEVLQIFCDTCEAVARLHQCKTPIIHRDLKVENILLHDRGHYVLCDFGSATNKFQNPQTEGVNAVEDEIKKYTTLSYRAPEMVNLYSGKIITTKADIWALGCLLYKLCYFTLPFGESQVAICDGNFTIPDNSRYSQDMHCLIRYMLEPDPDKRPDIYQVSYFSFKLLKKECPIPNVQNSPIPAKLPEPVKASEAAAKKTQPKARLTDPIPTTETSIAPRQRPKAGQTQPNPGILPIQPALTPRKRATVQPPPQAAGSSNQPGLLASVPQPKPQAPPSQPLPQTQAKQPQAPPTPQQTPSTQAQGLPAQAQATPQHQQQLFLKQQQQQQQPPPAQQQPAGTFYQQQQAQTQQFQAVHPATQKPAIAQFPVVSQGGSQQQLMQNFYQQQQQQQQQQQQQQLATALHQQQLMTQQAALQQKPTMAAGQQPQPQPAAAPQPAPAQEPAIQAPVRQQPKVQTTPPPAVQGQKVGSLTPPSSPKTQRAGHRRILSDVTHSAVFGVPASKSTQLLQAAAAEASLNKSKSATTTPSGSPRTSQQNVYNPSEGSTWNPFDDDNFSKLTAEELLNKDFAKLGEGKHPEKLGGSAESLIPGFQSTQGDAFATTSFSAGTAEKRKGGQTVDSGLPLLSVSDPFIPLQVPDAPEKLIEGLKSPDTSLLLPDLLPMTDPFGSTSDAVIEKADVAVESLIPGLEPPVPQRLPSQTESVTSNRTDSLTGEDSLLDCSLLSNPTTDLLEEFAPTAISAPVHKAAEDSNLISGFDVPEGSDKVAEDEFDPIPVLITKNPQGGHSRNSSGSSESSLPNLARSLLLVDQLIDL
T32 sequence (P30291 whole entry, the tested form may be a part): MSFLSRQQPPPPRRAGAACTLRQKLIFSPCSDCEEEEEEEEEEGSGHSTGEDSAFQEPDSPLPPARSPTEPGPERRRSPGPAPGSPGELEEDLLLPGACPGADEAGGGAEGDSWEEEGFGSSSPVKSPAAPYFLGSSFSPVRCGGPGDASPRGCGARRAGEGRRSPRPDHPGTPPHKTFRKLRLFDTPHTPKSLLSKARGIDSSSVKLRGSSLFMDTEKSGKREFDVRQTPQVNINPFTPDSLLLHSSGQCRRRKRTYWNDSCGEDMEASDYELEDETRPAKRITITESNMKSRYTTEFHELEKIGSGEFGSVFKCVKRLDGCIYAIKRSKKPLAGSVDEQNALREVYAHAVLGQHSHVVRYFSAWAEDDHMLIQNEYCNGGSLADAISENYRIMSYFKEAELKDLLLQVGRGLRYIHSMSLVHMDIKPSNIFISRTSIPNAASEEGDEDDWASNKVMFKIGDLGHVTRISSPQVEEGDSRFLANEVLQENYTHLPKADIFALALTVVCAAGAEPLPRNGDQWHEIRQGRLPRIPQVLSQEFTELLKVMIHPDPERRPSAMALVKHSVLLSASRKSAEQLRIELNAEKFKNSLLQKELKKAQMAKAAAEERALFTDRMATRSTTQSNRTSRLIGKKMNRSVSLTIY
T10 sequence (P11362 22-822): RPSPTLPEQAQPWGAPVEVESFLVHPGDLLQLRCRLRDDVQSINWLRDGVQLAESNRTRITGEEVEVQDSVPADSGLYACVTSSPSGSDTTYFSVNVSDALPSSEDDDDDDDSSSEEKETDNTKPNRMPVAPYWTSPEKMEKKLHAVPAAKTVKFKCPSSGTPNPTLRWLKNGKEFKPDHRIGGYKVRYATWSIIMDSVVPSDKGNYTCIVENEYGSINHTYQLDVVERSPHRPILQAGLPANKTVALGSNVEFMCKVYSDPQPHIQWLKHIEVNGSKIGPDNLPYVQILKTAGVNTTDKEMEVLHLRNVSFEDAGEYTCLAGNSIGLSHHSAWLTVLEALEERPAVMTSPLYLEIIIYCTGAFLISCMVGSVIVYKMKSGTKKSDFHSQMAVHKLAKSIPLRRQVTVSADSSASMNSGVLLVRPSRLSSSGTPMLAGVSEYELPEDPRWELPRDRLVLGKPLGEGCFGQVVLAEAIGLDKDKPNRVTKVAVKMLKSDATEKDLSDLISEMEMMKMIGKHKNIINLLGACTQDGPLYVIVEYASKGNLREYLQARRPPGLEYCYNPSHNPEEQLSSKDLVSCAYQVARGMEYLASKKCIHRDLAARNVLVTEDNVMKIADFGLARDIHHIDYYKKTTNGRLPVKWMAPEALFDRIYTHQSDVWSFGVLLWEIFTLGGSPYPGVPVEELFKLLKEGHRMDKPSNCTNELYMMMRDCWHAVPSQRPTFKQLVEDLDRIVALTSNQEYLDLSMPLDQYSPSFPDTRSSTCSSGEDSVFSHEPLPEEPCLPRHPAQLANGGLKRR
T28 sequence (Q9UKI8 whole entry): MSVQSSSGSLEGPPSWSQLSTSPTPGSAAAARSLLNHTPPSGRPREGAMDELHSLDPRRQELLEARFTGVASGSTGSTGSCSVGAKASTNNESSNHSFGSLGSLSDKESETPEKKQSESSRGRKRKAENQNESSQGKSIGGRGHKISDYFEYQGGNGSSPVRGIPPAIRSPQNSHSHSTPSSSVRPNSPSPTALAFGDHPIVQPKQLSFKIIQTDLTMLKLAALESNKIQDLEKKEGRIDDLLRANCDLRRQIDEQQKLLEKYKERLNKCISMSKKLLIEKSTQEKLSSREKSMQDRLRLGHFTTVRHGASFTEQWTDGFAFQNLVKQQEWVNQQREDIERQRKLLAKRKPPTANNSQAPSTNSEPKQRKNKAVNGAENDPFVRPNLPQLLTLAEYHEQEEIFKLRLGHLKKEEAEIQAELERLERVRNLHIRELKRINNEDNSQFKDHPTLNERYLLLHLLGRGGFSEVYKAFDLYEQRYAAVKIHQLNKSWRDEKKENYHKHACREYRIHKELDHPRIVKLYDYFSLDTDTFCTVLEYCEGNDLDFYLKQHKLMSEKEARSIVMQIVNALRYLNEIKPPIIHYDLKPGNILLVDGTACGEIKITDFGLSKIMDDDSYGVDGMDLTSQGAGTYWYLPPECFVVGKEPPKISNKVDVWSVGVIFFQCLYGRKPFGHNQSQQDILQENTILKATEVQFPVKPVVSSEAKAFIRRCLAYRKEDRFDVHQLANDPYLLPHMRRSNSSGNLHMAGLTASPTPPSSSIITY
T23 sequence (P41743 whole entry): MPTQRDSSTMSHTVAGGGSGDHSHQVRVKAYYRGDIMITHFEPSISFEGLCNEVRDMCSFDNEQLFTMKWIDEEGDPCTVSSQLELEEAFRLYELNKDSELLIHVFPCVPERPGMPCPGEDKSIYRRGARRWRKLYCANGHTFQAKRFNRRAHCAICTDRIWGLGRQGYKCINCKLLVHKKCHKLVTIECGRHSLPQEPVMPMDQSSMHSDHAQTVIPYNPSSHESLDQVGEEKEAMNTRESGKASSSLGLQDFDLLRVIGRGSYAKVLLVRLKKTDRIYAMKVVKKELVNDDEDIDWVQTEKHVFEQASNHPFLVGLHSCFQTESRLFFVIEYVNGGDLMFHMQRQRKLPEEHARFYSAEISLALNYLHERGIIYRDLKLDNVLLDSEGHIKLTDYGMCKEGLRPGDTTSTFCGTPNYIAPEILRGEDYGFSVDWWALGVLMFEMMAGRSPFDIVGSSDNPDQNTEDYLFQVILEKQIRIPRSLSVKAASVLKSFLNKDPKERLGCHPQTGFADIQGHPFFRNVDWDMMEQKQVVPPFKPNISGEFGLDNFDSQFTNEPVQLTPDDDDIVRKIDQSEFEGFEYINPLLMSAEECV
T25 sequence (Q9HBY8 whole entry): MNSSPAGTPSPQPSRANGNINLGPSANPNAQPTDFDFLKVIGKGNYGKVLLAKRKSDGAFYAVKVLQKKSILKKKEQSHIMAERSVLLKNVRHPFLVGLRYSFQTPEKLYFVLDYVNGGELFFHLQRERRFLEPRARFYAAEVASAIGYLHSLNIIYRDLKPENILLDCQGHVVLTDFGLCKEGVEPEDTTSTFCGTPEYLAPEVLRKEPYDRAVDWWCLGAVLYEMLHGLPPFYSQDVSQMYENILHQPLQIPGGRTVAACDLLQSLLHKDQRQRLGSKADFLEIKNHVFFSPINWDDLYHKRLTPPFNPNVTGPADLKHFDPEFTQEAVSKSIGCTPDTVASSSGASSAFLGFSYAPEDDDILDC
T18 sequence (Q13043 whole entry): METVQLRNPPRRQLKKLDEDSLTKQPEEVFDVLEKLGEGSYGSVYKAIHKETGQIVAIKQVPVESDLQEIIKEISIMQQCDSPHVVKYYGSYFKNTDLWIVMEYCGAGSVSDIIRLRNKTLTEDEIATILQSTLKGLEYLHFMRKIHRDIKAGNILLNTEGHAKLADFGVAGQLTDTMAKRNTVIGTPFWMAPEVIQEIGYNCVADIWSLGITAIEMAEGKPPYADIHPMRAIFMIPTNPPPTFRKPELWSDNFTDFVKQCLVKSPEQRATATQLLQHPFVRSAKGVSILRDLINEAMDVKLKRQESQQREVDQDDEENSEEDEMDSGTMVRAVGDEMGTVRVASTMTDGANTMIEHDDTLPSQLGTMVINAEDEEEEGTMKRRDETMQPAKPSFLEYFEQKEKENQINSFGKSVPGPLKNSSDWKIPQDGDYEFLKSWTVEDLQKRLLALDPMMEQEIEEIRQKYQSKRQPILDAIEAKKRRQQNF
T16 sequence (P52564 whole entry): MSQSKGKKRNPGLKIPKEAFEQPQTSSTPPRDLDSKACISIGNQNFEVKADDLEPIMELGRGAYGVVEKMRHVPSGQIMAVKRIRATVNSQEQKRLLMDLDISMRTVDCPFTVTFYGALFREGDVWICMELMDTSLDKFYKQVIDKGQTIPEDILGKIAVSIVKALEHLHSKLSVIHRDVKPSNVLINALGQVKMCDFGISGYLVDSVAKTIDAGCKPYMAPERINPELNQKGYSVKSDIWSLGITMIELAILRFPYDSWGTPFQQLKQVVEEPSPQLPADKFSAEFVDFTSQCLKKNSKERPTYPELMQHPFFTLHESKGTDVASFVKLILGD

## CC(C)c1ccc(CC(=O)N2CCN(c3ccc(C#N)nn3)CC2)cc1 [PZ-2891, 6-(4-(2-(4-isopropylphenyl)acetyl)piperazin-1-yl)pyridazine-3-carbonitrile]
[1]
  remaining binding at 10 µM: 84%
[2]
  remaining binding at 10 µM: 53%
[3]
  remaining binding at 10 µM: 89%
[4]
  remaining binding at 10 µM: 100%
[5]
  remaining binding at 10 µM: 97%
[6]
  remaining binding at 10 µM: 93%
[7]
  remaining binding at 10 µM: 81%
[8]
  remaining binding at 10 µM: 100%
[9]
  remaining binding at 10 µM: 82%
[10]
  remaining binding at 10 µM: 87%
[11]
  remaining binding at 10 µM: 57%
[12]
  remaining binding at 10 µM: 89%
[13]
  remaining binding at 10 µM: 72%
[14]
  remaining binding at 10 µM: 91%
[15]
  remaining binding at 10 µM: 100%
[16]
  remaining binding at 10 µM: 94%
[17]
  remaining binding at 10 µM: 80%
[18]
  remaining binding at 10 µM: 86%
[19]
  remaining binding at 10 µM: 97%
[20]
  remaining binding at 10 µM: 64%
[21]
  remaining binding at 10 µM: 88%
[22]
  remaining binding at 10 µM: 70%
[23]
  remaining binding at 10 µM: 83%
[24]
  remaining binding at 10 µM: 100%
[25]
  remaining binding at 10 µM: 64%
[26]
  remaining binding at 10 µM: 79%
[27]
  remaining binding at 10 µM: 99%
[28]
  remaining binding at 10 µM: 72%
[29]
  remaining binding at 10 µM: 98%
[30]
  remaining binding at 10 µM: 99%
[31]
  remaining binding at 10 µM: 69%
[32]
  remaining binding at 10 µM: 92%
[33]
  intracellular CoA, control (empty vector) HEK293T cells: significantly increased the levels of intracellular CoA
